Test results reported in patent publication EP4759817A1, “HETEROARYL COMPOUND, PREPARATION METHOD THEREFOR, AND USE THEREOF IN MEDICINE” (Jiangsu Hengrui Pharmaceuticals Co., Ltd., priority 2023, dated 2025).

Test system: HCT116 MTAP-/- cells
Experiment: HCT116 MTAP-/- cell proliferation assay (CellTiter-Glo, 10 days)
Format: cell-based
Settings: Homo sapiens, HCT-116, 240 h, growth inhibition, CTG assay Day 10
Source text: • I. Experimental materials and instruments • 1. HCT116 cell line (Nanjing Kebai Biotechnology Co., Ltd., CBP60028) • 2. HCT116 MTAP-/- cell line (Nanjing Kebai Biotechnology Co., Ltd., CBP75002) • 3. DMSO (Sigma, D2650) • 4. McCoy's 5A medium (Gibco, 16600-082) • 5. Foetal bovine serum (FBS) (Gibco, 10091148) • 6. Phosphate buffered saline (DPBS) pH 7.4 (Gibco, 14190-144) • 7. Pen strep (PS) (Gibco, 15140-122) • 8. 0.25% Typsin-EDTA (1×) (Gibco, 25200-072) • 9. CellTiter-Glo® Luminescent Cell Viability Assay (Promega, G7572) • 10. 96-well round-bottom plate (JET, TCP002096) • 11. 96-well black clear bottom plate (Hangzhou Xinyou Biotechnology Co., Ltd., 060096) • 12. 1.2 mL 96-well deep well plate, clear, sterile, square-well, V-bottom (Titan, 02089063) • 13. 15-mL centrifuge tube (Titan) • 14. Biosafety cabinet (Thermo, 1300AII) • 15. Cell counter (Countstar, IC1000) • 16. Incubator (Thermo, I160) • 17. Centrifuge (Beckman coulter, Allegra X-12 centrifuge) • 18. PHERAstar FS microplate reader (BMG Labtech) • II. Experimental procedure • 1. Cell plating (Day 0) • a) The cell morphology was observed under a microscope to ensure confluence reached approximately 90%. • b) The cell supernatant was aspirated, the cells were washed once with PBS, and then the PBS was removed; and the cells were digested by adding an appropriate amount of trypsin, and left to stand at 37°C for 3 minutes. • c) The digestion was terminated by adding an equal volume of McCoy's 5A medium containing 10% FBS, and the cell suspension was collected and centrifuged at 300 g for 3 minutes; and the cells were resuspended in an appropriate amount of fresh medium. • d) The resuspended cell suspension was taken for counting. • e) The cell suspension was diluted to 1e4/mL using McCoy's 5A medium containing 10% FBS, and seeded at 50 µL per well, corresponding to 500 cells/well for HCT116 and 500 cells/well for HCT116 MTAP-/-. • f) The cell plate was placed in a 37°C, 5% carbon dioxide incubator and incubated overnight. • 2. Compound treatment (Day 1) • a) Each compound was serially diluted in DMSO to generate a 9-point concentration gradient (starting concentration: 10000 µM, 3-fold dilution; the highest concentration may be adjusted individually based on IC50 of different compounds); for example, in a 96-well round-bottom compound-dilution plate, 5 µL of the compound was sequentially diluted into 10 µL of DMSO. • b) Each concentration point of every compound was then diluted 250-fold into the corresponding volume of McCoy's 5A medium. • c) To each cell plate, 50 µL of the diluted compound solution as described above was added sequentially to the cell supernatant (50 µL/well). • d) The compound-treated cell plate was placed in a 37°C, 5% carbon dioxide incubator and incubated. • 3. Re-digestion, re-plating and compound treatment (Day 5) • a) After 5 days of compound treatment, the compound-containing medium was aspirated, and the cells were rinsed once with PBS (100 µL/well); and the PBS was removed immediately. • b) The cells were digested by adding 25 µL of trypsin and incubated at 37°C for 3 minutes, and then the digestion was terminated by adding 175 µL/well of McCoy's 5A medium containing 10% FBS. • c) The cells were mixed thoroughly using a pipette, and re-plated at 1 : 20; and specifically, 10 µL of the cell suspension was aspirated to a new 96-well plate (pre-filled with 40 µL of McCoy's 5A medium containing 10% FBS. • d) Compounds were prepared and added according to steps a) to c) in Section 2, with 50 µL added per well. • e) The compound-treated cell plate was placed in a 37°C, 5% carbon dioxide incubator and incubated. • 4. […]

`Cn1ncc(-c2ccc3c(=O)[nH]nc(CN)c3c2)c1-c1c(F)cc2c(c1C#N)O[C@H]1CC[C@H]1O2` (atropisomer, axis not shown; (M)) [Compound 1-p1, (M)-(2aS,8aR)-5-(4-(4-(aminomethyl)-1-oxo-1,2-dihydrophthalazin-6-yl)-1-methyl-1H-pyrazol-5-yl)-6-fluoro-1,2,2a,8a-tetrahydrobenzo[b]cyclobuta[e][1,4]dioxine-4-carbonitrile] showed an IC50 of 11.9 nM.
With `[2H]C([2H])([2H])n1ncc(-c2ccc3c(=O)[nH]nc(CN)c3c2)c1-c1c(F)cc2c(c1C#N)O[C@H]1CC[C@H]1O2` (single isomer, unassigned) [Compound 2-p1] the IC50 was 10.2 nM.
In the case of `[2H]C([2H])([2H])n1ncc(-c2ccc3c(=O)[nH]nc(CN)c3c2)c1-c1c(F)cc2c(c1C#N)N1CCC[C@H]1CO2` (single isomer, unassigned) [Compound 8-p1], the IC50 is reported as 16.1 nM.
